# Biological target: benzodiazepin recognition sites in a membrane preparation from rat brain
# Assay: 3H-Flunitrazepam binding (displacement from benzodiazepine recognition sites; anxiolytic activity)
# Design: species or system rat (male Wistar)
# Details: rat cerebral cortex membranes; 2 nM 3H-flunitrazepam; pH 6.9; 20 minutes at 0-4 °C; log-probit analysis
row,SMILES,IC50
1,"CCn1ncc2c3noc(-c4cccc(Cl)c4)c3cnc21 [3-(3-Chlorophenyl)-6-ethyl-6H-isoxazolo[3,4-d]pyrazolo[3,4-b]pyridine]",4400 nM
2,"CCn1ncc2c3noc(-c4ccc(Cl)cc4)c3cnc21 [3-(4-Chlorophenyl)-6-ethyl-6H-isoxazolo[3,4-d]pyrazolo[3,4-b]pyridine]",400 nM
3,"CCn1ncc2c3noc(-c4ccccc4OC)c3cnc21 [6-Ethyl-3-(2-methoxyphenyl)-6H-isoxazolo[3,4-d]pyrazolo[3,4-b]pyridine]",2000 nM
4,"CCn1ncc2c3noc(-c4cccc(F)c4)c3cnc21 [6-Ethyl-3-(3-fluorophenyl)-6H-isoxazolo[3,4-d]pyrazolo[3,4-b]pyridine]",2300 nM
5,"CCn1ncc2c3noc(-c4ccc(F)cc4)c3cnc21 [6-Ethyl-3-(4-fluorophenyl)-6H-isoxazolo[3,4-d]pyrazolo[3,4-b]pyridine]",530 nM
6,"CCn1ncc2c3noc(-c4ccc(OC)cc4)c3cnc21 [6-Ethyl-3-(4-methoxyphenyl)-6H-isoxazolo[3,4-d]pyrazolo[3,4-b]pyridine]",1200 nM
7,"CCn1ncc2c3noc(-c4ccc(C)cc4)c3cnc21 [6-Ethyl-3-(4-tolyl)-6H-isoxazolo[3,4-d]pyrazolo[3,4-b]pyridine]",990 nM
8,"CCn1ncc2c3noc(-c4ccccc4)c3cnc21 [6-Ethyl-3-phenyl-6H-isoxazolo[3,4-d]pyrazolo[3,4-b]pyridine]",470 nM
9,"CNC1=Nc2ccc(Cl)cc2C(c2ccccc2)=[N+]([O-])C1 [Chlordiazepoxide, reference compound]",340 nM
